Test results: patent publication US20250092353A1, “COMMENSAL FUNGUS AND USES THEREOF” (YEDA RESEARCH AND DEVELOPMENT CO. LTD., priority 2022, published 2025)

What was measured:
C. albicans = assay: In vitro co-culture assay of C. albicans and K. weizmannii; format: cell-based, Candida albicans; conditions: in vitro coculture, flow cytometry
Experimental: FIGS. 2A-2F include micrographs, graphs, a plot, and a curve showing in vitro culture characteristics of K. weizmannii. (2A) Representative images of C. albicans and K. weizmannii in liquid media in presence of filament-inducing conditions, n=3 independent experiments. (2B) A graph showing largest differences in growth between K. weizmannii and C. albicans with different carbon sources, based on a z-score > or <2. Differences were calculated using the normalized area under the curve (AUC) of K. weizmannii and C. albicans. Normalization of the AUC are based on the growth of both species with glucose. Size of data points corresponds to the normalized AUC of K. weizmannii with the corresponding carbon source. All measurements were done using the Biolog Phenotype MicroArrays in biological triplicates. […] The data points are color-coded according to the different types of carbon sources. (2C) A graph showing the largest differences in growth between K. weizmannii and C. albicans with different nitrogen sources, based on a z-score greater than or less than 2. Differences were calculated using AUC of K. weizmannii and C. albicans and normalized based on the growth of both species with glutamine. […] GFP expressing C. albicans was detected by flowcytometry to discriminate between fungi, n=2 independent experiments.

[1] = test system: C. albicans SC5314 (ENO1-GFP); assay: In vivo competition with C. albicans in germ-free animals; set-up: species or system mice; conditions: oral mixture of the two fungi
From the text: FIGS. 3A-3M include fluorescent micrographs, graphs, and a scheme, showing K. weizmannii competition with C. albicans in colonized animals. (3A) A representative picture of a far-red fluorescent reporter Kazachstania strain (K. weizmannii ENO1-Mirf). (3B-C) Recoverable fecal K. weizmannii in colonized wild-type animals (without antibiotics) one and six months after single oral K. weizmannii ENO1-Mirf inoculation. (3D) Flow cytometric analysis of C. albicans SC5314 (ENO1-GFP), K. weizmannii (ENO1-Mirf), and mixed cultures used for oral inoculation (3E). […] Quantification (n=3-5 mice per group, 4 independent experiments) (see (3D). (3H) Schematic non-limiting outline of a co-housing experiment. (3I) Representative flow cytometric feces analysis of colonized mice 4 weeks after initial colonization (before cohousing) and 2 weeks after co-housing. (N=4 per group). (3J) Percentages of respective labelled fungi in feces of C. albicans, K. weizmannii colonized animals, before and after co-housing in Abx presence (except for day 48 and 58); antibiotics withdrawal on day 46 of cohousing, n=4 per group, representative of 2 independent experiments. (3K) Flow cytometric analysis of feces of germfree animals 1 week after oral inoculation of single fungi cultures or mixed C. albicans SC5314 (ENO1-GFP)/K. weizmannii (ENO1-Mirf) culture. […]

[2] = test system: neutrophils, classical and non-classical monocytes; assay: Flow cytometric analysis of myeloid blood cell compartment of colonized mice; format: in vivo; conditions: Abx-treated mice, 4 weeks colonized
From the text: FIGS. 4A-4F include graphs showing humoral and cellular immune responses to C. albicans and Kazachstania sp. (4A) Flow cytometric analysis of myeloid blood cell compartment of mice 4 weeks colonized with C. albicans or K. weizmannii. Neutrophils, classical and non-classical monocytes are defined as Ly6G+CD 115−, Ly6C+CD 115+, and […], respectively. N=8-21 mice, pooled from 3 independent experiments. Gating strategy, left, results, right. (4B) Flow cytometric analysis of humoral anti-fungal reactivity. Gating strategy for the determination of serum immunoglobulin binding to cultured C. albicans or K. weizmannii. (4C) Anti-C. albicans and K. weizmannii IgA and IgG serum reactivity of single-colonized animals, measured as shown in (4B). Note that most but not all animals harbor cross-reactive sera. (4D) Representative gating strategy of RORγt+ T cells (left); percentage of RORγt+ cells among TCRβ CD4+ T cells 5 weeks upon C. albicans or K. weizmannii colonization, n=3-5 mice per group, 3 independent experiments (right). […] EC damage was assessed using the LDH assay as described in (Allert et al., 2018). […]
Methods adhered to published guidelines (Cossarizza et al., 2019). Flow cytometry samples were recorded on BD LSR Fortessa 4 lasers or Cytek Aurora followed by data analysis using the FlowJo software (Treestar).

## Kazachstania weizmannii [K. weizmannii]
C. albicans
  growth interference in co-culture with C. albicans: grew together without interference
[1]
  C. albicans colonization after co-inoculation: prevented efficient C. albicans colonization
[2]
  abundance of blood granulocytes and monocytes: no significantly altered abundance of granulocytes, classical or non-classical monocytes
